Calls of active or inactive are those of the source. No cut-off for these calls is given here.
Legend:
MT4 = assay: Cytotoxicity against human MT4 cells up to 20 uM; type: cell-based
[1] = tested on: Human immunodeficiency virus 1; assay: Antiviral activity against HIV1 in human MT4 cells at 25 uM; type: functional
[2] = target: Human immunodeficiency virus type 1 integrase (Human immunodeficiency virus 1, UniProt Q7ZJM1); assay: Inhibition of recombinant HIV1 integrase strand transfer activity
Plasma = assay: Fraction unbound in human plasma; type: ADME, cell-free

Sequence of Human immunodeficiency virus type 1 integrase (Q7ZJM1 whole entry): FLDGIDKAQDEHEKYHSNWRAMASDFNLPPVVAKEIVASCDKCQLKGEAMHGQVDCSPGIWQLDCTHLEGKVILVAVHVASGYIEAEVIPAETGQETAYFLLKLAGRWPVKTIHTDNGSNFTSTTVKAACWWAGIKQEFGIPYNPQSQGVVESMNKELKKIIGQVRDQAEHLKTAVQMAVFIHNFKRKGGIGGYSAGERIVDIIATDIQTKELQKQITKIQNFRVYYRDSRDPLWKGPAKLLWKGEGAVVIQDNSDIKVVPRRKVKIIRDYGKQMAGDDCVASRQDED

Row | IC50 [2] [nM] | Fu (Plasma) [%] | Compound | Activity (MT4) | Activity [1]
1 | > 1000 |  | CN1C(=O)C(O)=C(C(=O)NCc2ccc(F)cc2)C1c1ccccc1 (stereo not drawn) | Not Active | inactive
2 | 100 |  | O=C(NCc1ccc(F)cc1)C1=C(O)C(=O)N(Cc2ccccc2)C1 | Not Active | inactive
3 | 4 |  | COc1ccccc1CCN1CC(C(=O)NCc2ccc(F)cc2)=C(O)C1=O | Not Active | inactive
4 | 94 | < 1 | O=C(NCc1ccc(F)cc1)C1=C(O)C(=O)N(Cc2ccccn2)C1 | Not Active | inactive
5 | 18 |  | O=C(NCc1ccc(F)cc1)C1=C(O)C(=O)N2CCCCC12 (stereo not drawn) | Not Active | 35%
6 | 6 |  | Cc1cccc(CN2CC(C(=O)NCc3ccc(F)cc3)=C(O)C2=O)c1 | Not Active | inactive
7 | > 1000 |  | O=C(NCc1ccc(F)cc1)C1=C(O)C(=O)N(CCN2CCOCC2)C1C(=O)NCc1ccc(F)cc1 (stereo not drawn) | Not Active | inactive
8 | 5 |  | O=C(NCc1ccc(F)cc1)C1=C(O)C(=O)N(CCCc2ccccc2)C1 | Not Active | inactive
9 | > 1000 |  | O=C(NCc1ccc(F)cc1)C1=C(O)C(=O)N(CCN2CCCCC2)C1 | Not Active | inactive

Reference: ChEMBL document CHEMBL1155121, “4-Hydroxy-5-pyrrolinone-3-carboxamide HIV-1 integrase inhibitors” (Bioorg Med Chem Lett, 2008)
